# Results: the supplement of paper PMC10307832
# Key:
# Assay in all cases: relative viability (nuclei count vs DMSO), 5 days (fraction); higher = more cells survive
# BEN = tested on: BEN
# Summary of the method: (§1)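 Lung cancer cell lines were pin-tool dosed in 1536-well plates on the day after seeding, with either a lone drug or a fixed anchor-drug dose plus five library-drug doses (not always all listed) in √10 steps. Nuclei were counted on 4× images after 5 days. Relative viability is the ratio of treated-well to vehicle-well nuclei counts, with each value a median of duplicate plates.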
# EPLC-272H = tested on: EPLC-272H
# Summary of the method: as §1
# HCC-827 = tested on: HCC-827
# Summary of the method: as §1
# HOP-62 = tested on: HOP-62
# Summary of the method: as §1
# LU99A = tested on: LU99A
# Summary of the method: as §1
# LXF-289 = tested on: LXF-289
# Summary of the method: as §1
# NCI-H1437 = tested on: NCI-H1437
# Summary of the method: as §1
# NCI-H1666 = tested on: NCI-H1666
# Summary of the method: as §1
# NCI-H1915 = tested on: NCI-H1915
# Summary of the method: as §1
# NCI-H2170 = tested on: NCI-H2170
# Summary of the method: as §1
# NCI-H2228 = tested on: NCI-H2228
# Summary of the method: as §1
# NCI-H2342 = tested on: NCI-H2342
# Summary of the method: as §1
# NCI-H2347 = tested on: NCI-H2347
# Summary of the method: as §1
# NCI-H23 = tested on: NCI-H23
# Summary of the method: as §1
# NCI-H322M = tested on: NCI-H322M
# Summary of the method: as §1
# NCI-H358 = tested on: NCI-H358
# Summary of the method: as §1
# NCI-H441 = tested on: NCI-H441
# Summary of the method: as §1
# NCI-H522 = tested on: NCI-H522
# Summary of the method: as §1
# NCI-H647 = tested on: NCI-H647
# Summary of the method: as §1
# NCI-H650 = tested on: NCI-H650
# Summary of the method: as §1
# NCI-H727 = tested on: NCI-H727
# Summary of the method: as §1
# SK-MES-1 = tested on: SK-MES-1
# Summary of the method: as §1
# SW 1573 = tested on: SW 1573
# Summary of the method: as §1
compound,measurement,setting,value
C=C1C(=O)O[C@@H](CCCCCCCC)[C@@H]1C(=O)O [C-75] + CC(=O)c1c(C)c2cnc(Nc3ccc(N4CCNCC4)cn3)nc2n(C2CCCC2)c1=O [Palbociclib] (partner 0.5 µM),relative viability,BEN; first compound 0.08 µM,0.509
same,relative viability,BEN; first compound 0.253 µM,0.483
same,relative viability,BEN; first compound 0.8 µM,0.46
same,relative viability,BEN; first compound 2.53 µM,0.375
same,relative viability,BEN; first compound 8 µM,0.452
same,relative viability,EPLC-272H; first compound 0.08 µM,0.312
same,relative viability,EPLC-272H; first compound 0.253 µM,0.387
same,relative viability,EPLC-272H; first compound 0.8 µM,0.333
same,relative viability,EPLC-272H; first compound 2.53 µM,0.244
same,relative viability,EPLC-272H; first compound 8 µM,0.365
same,relative viability,HCC-827; first compound 0.253 µM,0.519
same,relative viability,HCC-827; first compound 0.8 µM,0.5
same,relative viability,HCC-827; first compound 8 µM,0.494
same,relative viability,HOP-62; first compound 0.08 µM,0.46
same,relative viability,HOP-62; first compound 0.253 µM,0.431
same,relative viability,HOP-62; first compound 0.8 µM,0.484
same,relative viability,HOP-62; first compound 2.53 µM,0.361
same,relative viability,HOP-62; first compound 8 µM,0.413
same,relative viability,LU99A; first compound 0.08 µM,0.383
same,relative viability,LU99A; first compound 0.253 µM,0.354
same,relative viability,LU99A; first compound 0.8 µM,0.481
same,relative viability,LU99A; first compound 2.53 µM,0.408
same,relative viability,LU99A; first compound 8 µM,0.398
same,relative viability,LXF-289; first compound 0.08 µM,0.567
same,relative viability,LXF-289; first compound 0.253 µM,0.553
same,relative viability,LXF-289; first compound 0.8 µM,0.597
same,relative viability,LXF-289; first compound 2.53 µM,0.604
same,relative viability,LXF-289; first compound 8 µM,0.621
same,relative viability,NCI-H1437; first compound 0.08 µM,0.301
same,relative viability,NCI-H1437; first compound 0.253 µM,0.381
same,relative viability,NCI-H1437; first compound 0.8 µM,0.299
same,relative viability,NCI-H1437; first compound 8 µM,0.312
same,relative viability,NCI-H1666; first compound 0.08 µM,0.626
same,relative viability,NCI-H1666; first compound 0.253 µM,0.638
same,relative viability,NCI-H1666; first compound 0.8 µM,0.662
same,relative viability,NCI-H1666; first compound 8 µM,0.594
same,relative viability,NCI-H1915; first compound 0.08 µM,0.515
same,relative viability,NCI-H1915; first compound 0.253 µM,0.556
same,relative viability,NCI-H1915; first compound 0.8 µM,0.546
same,relative viability,NCI-H1915; first compound 2.53 µM,0.472
same,relative viability,NCI-H1915; first compound 8 µM,0.5
same,relative viability,NCI-H2170; first compound 0.08 µM,0.388
same,relative viability,NCI-H2170; first compound 0.253 µM,0.406
same,relative viability,NCI-H2170; first compound 0.8 µM,0.377
same,relative viability,NCI-H2170; first compound 2.53 µM,0.319
same,relative viability,NCI-H2170; first compound 8 µM,0.424
same,relative viability,NCI-H2228; first compound 0.08 µM,0.743
same,relative viability,NCI-H2228; first compound 0.253 µM,0.988
same,relative viability,NCI-H2228; first compound 0.8 µM,0.589
same,relative viability,NCI-H2228; first compound 2.53 µM,0.7
same,relative viability,NCI-H2228; first compound 8 µM,0.681
same,relative viability,NCI-H2342; first compound 0.08 µM,0.546
same,relative viability,NCI-H2342; first compound 0.253 µM,0.488
same,relative viability,NCI-H2342; first compound 0.8 µM,0.551
same,relative viability,NCI-H2342; first compound 2.53 µM,0.541
same,relative viability,NCI-H2342; first compound 8 µM,0.571
same,relative viability,NCI-H2347; first compound 0.08 µM,0.468
same,relative viability,NCI-H2347; first compound 0.253 µM,0.44
same,relative viability,NCI-H2347; first compound 0.8 µM,0.35
same,relative viability,NCI-H2347; first compound 2.53 µM,0.389
same,relative viability,NCI-H2347; first compound 8 µM,0.413
same,relative viability,NCI-H23; first compound 0.08 µM,0.499
same,relative viability,NCI-H23; first compound 0.253 µM,0.582
same,relative viability,NCI-H23; first compound 0.8 µM,0.511
same,relative viability,NCI-H23; first compound 2.53 µM,0.467
same,relative viability,NCI-H23; first compound 8 µM,0.42
same,relative viability,NCI-H322M; first compound 0.08 µM,0.481
same,relative viability,NCI-H322M; first compound 0.253 µM,0.525
same,relative viability,NCI-H322M; first compound 0.8 µM,0.479
same,relative viability,NCI-H322M; first compound 8 µM,0.481
same,relative viability,NCI-H358; first compound 0.08 µM,0.137
same,relative viability,NCI-H358; first compound 0.253 µM,0.135
same,relative viability,NCI-H358; first compound 0.8 µM,0.147
same,relative viability,NCI-H358; first compound 8 µM,0.135
same,relative viability,NCI-H441; first compound 0.08 µM,0.255
same,relative viability,NCI-H441; first compound 0.253 µM,0.255
same,relative viability,NCI-H441; first compound 0.8 µM,0.205
same,relative viability,NCI-H441; first compound 8 µM,0.184
same,relative viability,NCI-H522; first compound 0.08 µM,1.27
same,relative viability,NCI-H522; first compound 0.253 µM,0.989
same,relative viability,NCI-H522; first compound 0.8 µM,1.06
same,relative viability,NCI-H522; first compound 2.53 µM,0.698
same,relative viability,NCI-H522; first compound 8 µM,0.779
same,relative viability,NCI-H647; first compound 0.08 µM,0.312
same,relative viability,NCI-H647; first compound 0.253 µM,0.384
same,relative viability,NCI-H647; first compound 0.8 µM,0.394
same,relative viability,NCI-H647; first compound 2.53 µM,0.239
same,relative viability,NCI-H647; first compound 8 µM,0.236
same,relative viability,NCI-H650; first compound 0.08 µM,0.31
same,relative viability,NCI-H650; first compound 0.253 µM,0.27
same,relative viability,NCI-H650; first compound 0.8 µM,0.36
same,relative viability,NCI-H650; first compound 2.53 µM,0.283
same,relative viability,NCI-H650; first compound 8 µM,0.39
same,relative viability,NCI-H727; first compound 0.08 µM,0.755
same,relative viability,NCI-H727; first compound 0.253 µM,0.667
same,relative viability,NCI-H727; first compound 0.8 µM,0.544
same,relative viability,NCI-H727; first compound 2.53 µM,0.614
same,relative viability,NCI-H727; first compound 8 µM,0.624
same,relative viability,SK-MES-1; first compound 0.08 µM,0.321
same,relative viability,SK-MES-1; first compound 0.253 µM,0.349
same,relative viability,SK-MES-1; first compound 0.8 µM,0.309
same,relative viability,SK-MES-1; first compound 2.53 µM,0.264
same,relative viability,SK-MES-1; first compound 8 µM,0.292
same,relative viability,SW 1573; first compound 0.08 µM,0.357
same,relative viability,SW 1573; first compound 0.253 µM,0.394
same,relative viability,SW 1573; first compound 0.8 µM,0.47
same,relative viability,SW 1573; first compound 2.53 µM,0.423
same,relative viability,SW 1573; first compound 8 µM,0.351
